Results published in patent publication US20100278849A1, “PROSTATIC ACID PHOSPHATASE ANTIGENS” (priority 2004, published 2010).
“Also recorded” adds a separate entry of the source.

How the values were obtained:
Assay type in all cases: cell-based
HLA-A2*0201 = HLA-A2*0201 (Homo sapiens, UniProt P04439, D140Y/D185E/D98H/E176V/E277Q/G131W/G231S/I119V/I121R/I166T/I218V/L300P/L318F/N151K/N90K/P208A/P217A/Q86G/Q94H/R138H/R169H/T345S); settings: peptide at 100, 10 and 1 μM; compared with positive control influenza M1 peptide; three independent experiments
HLA-DRβ1*0401 = assay: Proliferation of splenocytes from immunised HLA-DR4 mice with peptide-pulsed BM-DC (tritiated thymidine); settings: for effect of anti-HLA-DR antibody (L243) on proliferation: not blocked by isotype control; for proliferation of splenocytes from immunised HLA-DR4 mice: re-stimulated in vitro with peptide for 5 days; for number of HLA-DR4 mice whose splenocytes demonstrated specific proliferation: responding/total mice, after re-stimulation in vitro with relevant peptide
Procedure: (§1) HLA-A2.1/K^b mice were immunised with an emulsion consisting of 100 μg of the putative class-I peptide epitope and 100 μg of non-specific class-II peptide derived from hepatitis B virus in 50% incomplete Freund's adjuvant (IFA). HLA-DR4- and HLA-DR1-transgenic mice were immunised twice at one week interval with 100 μg of class-II peptide emulsified in 50% incomplete Freund's adjuvant (IFA) and 50% PBS. All vaccine were delivered as a 100 μl intradermal bolus inoculum at the base of the tail.
(§2) 0DC were generated using a method adapted from Inaba et al (Inaba et al. 1992). Briefly, femurs and tibias were harvested aseptically from non-immunised DR1 or DR4 transgenic mice and placed in sterile PBS supplemented with 50 IU/ml penicillin, 50 μg/ml streptomycin, and 0.25 μg/ml fungizone. The marrow was flushed out of the bone using BM-DC media (RPMI 1640 medium supplemented with 2 mM glutamine, 5% FCS, 10 mM Hepes, 501M 2-ME, 50 μg/ml penicillin, 50 μg/ml streptomycin, 0.25 μg/ml fungisone and 10% of supernatant collected from X-63 cells). The cells were washed once in BM-DC media and plated in 24-well plates at 10^6/well in 1 ml DC media and incubated at 37° C. in a 5% CO2 humidified atmosphere. On days 2 and 4, the non-adherent cells (T cells, B cells, granulocytes) were removed, and the remaining cells were cultured in fresh DC medium. After 7-9 days, clusters of loosely adherent DC were dislodged and collected by gently pipetting, before being washed and seeded in 24-well plates at 0.5×10^6 cells/well in 1 ml DC media. Peptides were added at 1 μg/well and the plates were incubated at 37° C. 1 μg/ml of LPS was added after 5 hours, and the plates were incubated overnight at 37° C. in a 5% CO2 in air-humidified atmosphere.
(§3) After 6 days, the spleens from immunised animals were collected and the cells flushed out using T cell media (RPMI+10% FCS+20 mM HEPES buffer+50 μM 2-mercaptoethanol+50 U/ml penicillin/streptomycin+0.25 μg/ml fungizone). The remaining splenic tissue was digested using an enzyme cocktail (0.1 U/ml DNAase (Sigma)+1.6 mg/ml collagenase (Sigma)) for 1 hour at 37° C. The cell suspension obtained was pooled with the flushed cells, washed once, and the splenocytes were plated in 24 well plates with 10 μg/ml of peptide at a density of 2.5×10^6/ml for FVB/N-DR1 or 3.5×10^6/ml for C57BL/6-DR4. Cells were also cultured with an irrelevant peptide as a control. To measure cytokine production, culture supernatants were collected on day 2 and 5 of the culture for the measurement of cytokine by ELISA.
[…] CD8+ T cells were depleted from the cell suspension using anti-CD8+ antibody coupled with magnetic beads (Dynal, UK) as per the manufacturers instructions. Cells were then washed in PBS and resuspended at 5×10^5/ml in T cell medium. 100 μl of T cells was then added to all wells. Anti-DR antibody (L243) or isotype control were added to some wells to confirm the MHC specificity of the T-cell response. LPS-treated dendritic cells were harvested, washed and incubated in 1 ml of DC medium with the addition of 10 íg of peptide at 37° C. for 5 hours. After washing, 10^3 peptide-pulsed DC were added to the relevant wells of lymphocyte cultures in 50 íl media. These plates were then incubated for 3 days at 37° C. in a 5% CO2 in air-humidified atmosphere. Tritriated thymidine was then added to the culture and incubated again for 18 hours. Plates were harvested onto 96 Uni/Filter (Packard), the scintillation liquid (Microscint 0, Packard) was added and the plates were counted on a Top-Count counter (Packard). Results are expressed in counts per minute (cpm) and as a means of the triplicate wells. Statistical analysis was performed using unpaired Student's t test. […]

HLA-DRβ1*0101 = assay: Proliferation of splenocytes from immunised HLA-DR1 mice with peptide-pulsed BM-DC (tritiated thymidine); settings: for proliferative response of splenocytes from HLA-DR1 mice: FVB/N-DR1 / HLA-DRβ1*0101 transgenic mice; for number of HLA-DR1 mice whose splenocytes demonstrated specific proliferation: responding/total mice, after re-stimulation in vitro with relevant peptide
Procedure: as §1, §2, §3
Splenocytes from immunised animals cultured for 6 days in the presence of 10 μg of the test peptide were harvested, washed and counted. CD8+ T cells were depleted from the cell suspension using anti-CD8+ antibody coupled with magnetic beads (Dynal, UK) as per the manufacturers instructions. Cells were then washed in PBS and resuspended at 5×10^5/ml in T cell medium. 100 μl of T cells was then added to all wells. Anti-DR antibody (L243) or isotype control were added to some wells to confirm the MHC specificity of the T-cell response. LPS-treated dendritic cells were harvested, washed and incubated in 1 ml of DC medium with the addition of 10 íg of peptide at 37° C. for 5 hours. After washing, 10^3 peptide-pulsed DC were added to the relevant wells of lymphocyte cultures in 50 íl media. […] Plates were harvested onto 96 Uni/Filter (Packard), the scintillation liquid (Microscint 0, Packard) was added and the plates were counted on a Top-Count counter (Packard). […]

IFN-γ [1] = assay: Cytokine production by splenocytes of immunised C57BL/6-DR4 mice, ELISA; settings: relevant versus irrelevant peptide
Procedure: as §3
(§4) Aliquots of supernatants were removed from CTL cultures on days 1 and 5 and on days 2 and 5 from CD4′ T cell cultures and stored at −20° C. until required. ELISA was used to quantitate concentrations of murine IFN-γ and IL-5 (R&D systems, UK).
We further investigated HLA-DR class-II restricted responses to PAP peptides that were predicted to bind to HLA-DR1 and HLA-DR4 according to the evidence-based computer assisted algorithm […]. The peptides displaying high binding scores for both HLA-DR alleles were selected and further studied (Table 1). C57BL/6-DR4 mice were immunised with these predicted HLA-DR-restricted PAP and the proliferative and IFN-γ response to peptide stimulation in vitro was monitored by proliferation assays and cytokine measurements. PAP. 64 and PAP.

IFN-γ [2] = assay: Cytokine production by splenocytes of immunised FVB/N-DR1 mice, ELISA
Procedure: as §3, §4

| Sequence | binding to HLA-A2 (T2 cells) (HLA-A2*0201) | effect of anti-HLA-DR antibody (L243) on proliferation (HLA-DRβ1*0401) | effect of anti-HLA-DR antibody (L243) on proliferation (HLA-DRβ1*0401; listed as PAP. 64) | proliferation of splenocytes from immunised HLA-DR4 mice (HLA-DRβ1*0401) | number of HLA-DR4 mice whose splenocytes demonstrated specific proliferation (HLA-DRβ1*0401) | number of HLA-DR4 mice whose splenocytes demonstrated specific proliferation (HLA-DRβ1*0401; listed as PAP. 64) | proliferative response of splenocytes from HLA-DR1 mice (HLA-DRβ1*0101) | number of HLA-DR1 mice whose splenocytes demonstrated specific proliferation (HLA-DRβ1*0101) | IFN-γ production by splenocytes (IFN-γ [1]) | IFN-γ or IL-50 (cytokine) production of splenocytes (IFN-γ [2]) | effect of anti-HLA-DR antibody (L243) on proliferation (HLA-DRβ1*0401; listed as PAP. 207) | number of HLA-DR4 mice whose splenocytes demonstrated specific proliferation (HLA-DRβ1*0401; listed as PAP. 207) |
| --- | --- | --- | --- | --- | --- | --- | --- | --- | --- | --- | --- | --- |
| ALASCFCFFC (listed as Homo sapiens) [PAP.15] | no significant binding | – | – | – | – | – | – | – | – | – | – | – |
| IMYSAHDTTV (listed as Homo sapiens) [PAP.284] | Weak binding | – | – | – | – | – | – | – | – | – | – | – |
| PQGFGQLTQLGMEQH (listed as Homo sapiens) [PAP.64] | – | inhibited by the addition of L243 antibody | blocked in the presence of L243 antibody | Specific proliferation | 2/5 | 2 out of 5 | failed, with the exception of one out six experiments | 1/6 | not produced specifically | failed, with the exception of one out six experiments | – | – |
| SKVYDPLYSESVHNF (listed as Homo sapiens) [PAP.207] | – | inhibited by the addition of L243 antibody | – | Specific proliferation | 1/6 | – | failed, with the exception of one out six experiments | 0/5 | not produced specifically | failed, with the exception of one out six experiments | blocked in the presence of L243 antibody | 1 out of 6 |
| VLAKELKFV (listed as Homo sapiens) [PAP.30, class-I PAP peptide already known in the art (Peshwa, 1998), reference compound] | strong binding; also recorded: moderate HLA-A2 binding | – | – | – | – | – | – | – | – | – | – | – |
